Reference: patent EP1005445B1, “N-ALKANOYLPHENYLALANINE DERIVATIVES” (F. HOFFMANN-LA ROCHE AG, priority 1997, dated 1999)
Where “and” joins values, the source holds several entries; their conditions need not be identical. Identical values can stand only once.

Experiments:
VLA-4 (a4b1 integrin) [1] = biological target: T1, VLA-4 (a4b1 integrin) (Homo sapiens, UniProt P05556+P13612); experiment: VLA-4 / VCAM-1 Screening Assay (solid-phase, dual antibody ELISA); settings: Ramos cell-derived VLA-4 binding to immobilized recombinant human VCAM-1, 1 mM MnCl2, 2 hr at 37 °C
T1 construct: followed by 10 µl of Ramos cell-derived VLA-4; endogenous in cells; host or cells: Ramos cells (VLA-4 preparation derived from the cells)
T1 sequence (P13612 34-1032): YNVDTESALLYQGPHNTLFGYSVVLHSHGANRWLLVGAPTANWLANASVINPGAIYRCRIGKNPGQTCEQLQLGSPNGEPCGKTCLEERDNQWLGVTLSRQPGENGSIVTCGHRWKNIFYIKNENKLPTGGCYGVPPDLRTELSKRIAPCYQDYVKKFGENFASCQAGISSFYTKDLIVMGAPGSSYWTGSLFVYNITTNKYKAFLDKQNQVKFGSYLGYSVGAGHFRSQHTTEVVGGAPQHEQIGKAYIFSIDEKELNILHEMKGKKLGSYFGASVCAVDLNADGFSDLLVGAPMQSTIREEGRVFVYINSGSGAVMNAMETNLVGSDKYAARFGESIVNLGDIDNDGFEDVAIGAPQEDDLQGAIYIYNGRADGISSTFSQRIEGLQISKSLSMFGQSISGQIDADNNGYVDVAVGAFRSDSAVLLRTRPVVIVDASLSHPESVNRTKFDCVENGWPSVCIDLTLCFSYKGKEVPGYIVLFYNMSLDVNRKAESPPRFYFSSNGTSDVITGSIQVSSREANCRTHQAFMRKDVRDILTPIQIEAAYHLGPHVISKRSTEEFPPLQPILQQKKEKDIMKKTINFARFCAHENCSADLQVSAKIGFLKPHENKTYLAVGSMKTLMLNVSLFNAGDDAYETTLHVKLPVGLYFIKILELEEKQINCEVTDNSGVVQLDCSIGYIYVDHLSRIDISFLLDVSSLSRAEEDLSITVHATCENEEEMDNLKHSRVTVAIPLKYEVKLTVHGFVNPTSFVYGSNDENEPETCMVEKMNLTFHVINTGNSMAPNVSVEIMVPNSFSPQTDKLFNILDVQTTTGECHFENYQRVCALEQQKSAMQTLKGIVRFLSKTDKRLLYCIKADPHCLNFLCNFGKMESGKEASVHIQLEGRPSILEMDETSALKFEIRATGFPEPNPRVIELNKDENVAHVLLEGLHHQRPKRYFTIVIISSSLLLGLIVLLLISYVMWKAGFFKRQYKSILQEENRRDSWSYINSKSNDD
T1 sequence (P05556 21-798): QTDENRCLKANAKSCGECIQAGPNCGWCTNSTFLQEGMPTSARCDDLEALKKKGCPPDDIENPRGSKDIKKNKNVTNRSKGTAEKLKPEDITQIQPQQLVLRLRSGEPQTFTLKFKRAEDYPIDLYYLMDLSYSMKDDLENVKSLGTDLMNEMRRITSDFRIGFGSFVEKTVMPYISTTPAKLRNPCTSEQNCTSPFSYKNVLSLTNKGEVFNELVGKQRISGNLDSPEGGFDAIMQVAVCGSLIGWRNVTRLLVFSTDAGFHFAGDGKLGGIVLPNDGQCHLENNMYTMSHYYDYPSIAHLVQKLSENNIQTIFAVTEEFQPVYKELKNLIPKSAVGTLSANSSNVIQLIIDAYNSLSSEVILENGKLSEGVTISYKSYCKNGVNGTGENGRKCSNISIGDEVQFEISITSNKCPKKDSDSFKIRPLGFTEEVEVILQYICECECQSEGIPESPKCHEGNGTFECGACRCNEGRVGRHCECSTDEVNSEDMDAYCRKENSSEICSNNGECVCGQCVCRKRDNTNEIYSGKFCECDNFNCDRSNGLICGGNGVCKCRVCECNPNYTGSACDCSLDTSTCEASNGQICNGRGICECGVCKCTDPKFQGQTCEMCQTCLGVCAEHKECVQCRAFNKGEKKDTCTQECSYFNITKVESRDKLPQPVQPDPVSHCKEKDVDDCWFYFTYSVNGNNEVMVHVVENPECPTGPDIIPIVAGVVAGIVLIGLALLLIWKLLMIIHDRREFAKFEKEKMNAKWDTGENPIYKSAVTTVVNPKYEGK
Protocol: VLA-4 / VCAM-1 Screening Assay
VLA-4 antagonist activity, defined as ability to compete for binding to immobilized VCAM-1, was quantitated using a solid-phase, dual antibody ELISA. VLA-4 (a4b1 integrin) bound to VCAM-1 is detected by a complex of anti-integrin b1 antibody: HRP-conjugated anti-mouse IgG: chromogenic substrate (K-Blue). Initially, this entailed coating 96 well plates (Nunc Maxisorp) with recombinant human VCAM-1 (0.4 µg in 100 µl PBS), sealing each plate and then allowing the plates to stand at 4°C for Å18 hr. […] On the day of assay, all plates are washed twice with VCAM Assay Buffer (200 µl/well of 50 mM Tris-HCl, 100 mM NaCl, 1 mM MnCl2, 0.05% Tween 20; pH 7.4). Test compounds are dissolved in 100% DMSO and then diluted 1:20 in VCAM Assay Buffer supplemented with 1mg/mL BSA (i.e., final DMSO = 5%). […] 100 µl per well of each dilution is added to the VCAM-coated plates, followed by 10 µl of Ramos cell-derived VLA-4. These plates are sequentially mixed on a platform shaker for 1 min, incubated for 2 hr at 37 °C, and then washed four times with 200 µl/well VCAM Assay Buffer. 100 µl of mouse anti-human integrin b1 antibody is added to each well (0.6 µg/mL in VCAM Assay Buffer + 1mg/mL BSA) and allowed to incubate for 1 hr at 37°C. At the conclusion of this incubation period, all plates are washed four times with VCAM Assay Buffer (200 µl/well). A corresponding second antibody, HRP-conjugated goat anti-mouse IgG (100 µl per well @ 1:800 dilution in VCAM Assay Buffer + 1mg/mL BSA), is then added to each well, followed by a 1 hr incubation at room temperature and concluded by three washes (200µl/well) with VCAM Assay Buffer. Color development is initiated by addition of 100 µl K-Blue per well (15 min incubation, room temp) and terminated by addition of 100 µl Red Stop Buffer per well. […] Results are calculated as % inhibition of total binding (i.e., VLA-4 + VCAM-1 in the absence of test compound).

VLA-4 (a4b1 integrin) [2] = biological target: T1, VLA-4 (a4b1 integrin); experiment: Ramos (VLA-4) / VCAM-1 Cell-Based Screening Assay (cell adhesion)
Excerpt: Ramos (VLA-4) / VCAM-1 Cell-Based Screening Assay Protocol
Calcein-AM was purchased from Molecular Probes Inc.
VLA-4 (a4b1 integrin) antagonist activity, defined as ability to compete with cell-surface VLA-4 for binding to immobilized VCAM-1, was quantitated using a Ramos-VCAM-1 cell adhesion assay. Ramos cells bearing cell-surface VLA-4, were labeled with a fluorescent dye (Calcein-AM) and allowed to bind VCAM-1 in the presence or absence of test compounds.
Initially, this entailed coating 96 well plates (Nunc Maxisorp) with recombinant human VCAM-1 (100 ng in 100 µl PBS), sealing each plate and allowing the plates to stand at 4°C for Å18 hr. The VCAM-coated plates were subsequently washed twice with 0.05% Tween-20 in PBS, and then blocked for 1hr (room temperature) with 200 µl of Blocking Buffer (1% BSA/0.02% thimerosal) to reduce non-specific binding. Following the incubation with Blocking Buffer, plates were inverted, blotted and the remaining buffer aspirated. Each plate was then washed with 300 µl PBS, inverted and the remaining PBS aspirated.
Test compounds were dissolved in 100% DMSO and then diluted 1:25 in VCAM Cell Adhesion Assay Buffer (4 mM CaCl2, 4 mM MgCl2 in 50 mM TRIS-HCl, pH 7.5) (final DMSO = 4%). […] 100 µl/well of each dilution was added to the VCAM-coated plates, followed by 100 µl of Ramos cells (200,000 cells/well in 1% BSA/PBS). […] Plates were inverted to remove non-adherent cells, blotted and 300 µl/well PBS added. Plates were again inverted, blotted and the remaining buffer gently aspirated. 100 µl Lysis Buffer (0.1% SDS in 50 mM TRIS-HCl, pH 8.5) was added to each well and agitated for 2 min on a rotary shaking platform.

[3] = Calcein-AM labeled Ramos cells adhering to immobilized recombinant human VCAM-1, 45 min at room temperature, read-out: Ramos IC50

Row | Compound | IC50 (VLA-4 (a4b1 integrin) [1]; read-out: ELISA IC50) | IC50 (VLA-4 (a4b1 integrin) [2]; [3]) | other results
1 | CS(=O)(=O)c1ccc(C(=O)N[C@@H](Cc2ccc(NC(=O)c3c(Cl)cccc3Cl)cc2)C(=O)O)c(Cl)c1 [Example 94] | 0.25 nM | 9.5 nM | –
2 | Nc1ccc(C(=O)N[C@@H](Cc2ccc(NC(=O)c3c(Cl)cccc3Cl)cc2)C(=O)O)c(Cl)c1 [Example 124, N-[(4-amino-2-chlorophenyl)carbonyl]-4-[[(2,6-dichlorophenyl)carbonyl]amino]-L-phenylalanine] | 0.63 nM | 985 nM | –
3 | CC(=O)N1C(Cc2ccccc2)C(=O)N(c2ccc(C[C@H](NC(=O)c3c(C)cccc3Cl)C(=O)O)cc2)C1c1ccccc1 (single isomer, unassigned) [Example 170] | – | 33.5 nM | –
4 | Cc1cccc(Cl)c1C(=O)N[C@@H](Cc1ccc(N2C(=O)c3ccc(C#N)cc3C2=O)cc1)C(=O)O [Example 125] | – | – | IC50 (VLA-4 (a4b1 integrin) [1]; read-out: ELISA IC50 nM): 1.7 nM
5 | Cc1cc(C(F)(F)F)c(C(=O)Nc2ccc(C[C@H](NC(=O)c3c(C)cccc3Cl)C(=O)O)cc2)c(C)n1 [Example 150] | – | – | IC50 (VLA-4 (a4b1 integrin) [2]): 47 nM
6 | Cc1cccc(Cl)c1C(=O)N[C@@H](Cc1ccc(NC(=O)c2c(F)cccc2F)cc1)C(=O)O [Example 114, N-[1-(2-Chloro-6-methylphenyl)carbonyl]-4-[[(2,6-difluorophenyl)carbonyl]amino]-L-phenylalanine] | 1.14 nM | – | –
7 | Cc1cccc(Cl)c1C(=O)Nc1ccc(C[C@H](NC(=O)c2c(Cl)cccc2Cl)C(=O)O)cc1 [Example 169, N-[(2,6-Dichlorophenyl)carbonyl]-4-[[(2-chloro-6-methylphenyl)carbonyl]amino]-L-phenylalanine] | – | 30 nM | –
8 | Cc1cccc(Cl)c1C(=O)N[C@@H](Cc1ccc(NC(=O)c2c(F)c(F)c(F)c(F)c2F)cc1)C(=O)O [Example 115, N-[1-(2-Chloro-6-methylphenyl)carbonyl]-4-[[(2,3,4,5,6-pentafluorophenyl)carbonyl]amino]-L-phenylalanine] | 4.5 nM | 678 nM | –
9 | C[S+]([O-])c1ccccc1C(=O)N[C@@H](Cc1ccc(NC(=O)c2c(Cl)cccc2Cl)cc1)C(=O)O (single isomer, unassigned) [Example 30, 4-[[(2,6-dichlorophenyl)carbonyl]amino]-N-[[2-(methylsulfinyl)phenyl]carbonyl]-L-phenylalanine] | 2 nM and 1.6 nM | – | –
10 | Cc1cccc(Cl)c1C(=O)N[C@@H](Cc1ccc(NC(=O)c2c(C)ccnc2C)cc1)C(=O)O [Example 107] | – | – | IC50 (VLA-4 (a4b1 integrin) [1]; ELISA IC50 nM): 0.79 nM; IC50 (VLA-4 (a4b1 integrin) [2]): 20 nM
11 | O=C(N[C@@H](Cc1ccc(NC(=O)c2c(Cl)cccc2Cl)cc1)C(=O)O)c1ccc(O)cc1Cl [Example 95] | 0.46 nM | 33 nM | –

Continued, in another order:

Row | IC50 (VLA-4 (a4b1 integrin) [1]; read-out: ELISA IC50) | IC50 (VLA-4 (a4b1 integrin) [2]; [3]) | Compound | other results
12 | 1.2 nM | 23 nM | Cc1cccc(C(C)C)c1C(=O)N[C@@H](Cc1ccc(NC(=O)c2c(Cl)cccc2Cl)cc1)C(=O)O [Example 90] | –
13 | 0.33 nM | 15 nM | Cc1cccc(Cl)c1C(=O)N[C@@H](Cc1ccc(NC(=O)c2c(Cl)cccc2Cl)cc1)C(=O)O [Example 13] | –
14 | 41 nM | – | CC(=O)N1[C@H](CC(C)C)C(=O)N(c2ccc(C[C@H](NC(=O)c3c(C)cccc3Cl)C(=O)O)cc2)[C@@H]1C(C)(C)C [Example 102] | –
15 | 1.4 nM | 1270 nM | Cc1cccc(C(=O)N[C@@H](Cc2ccc(NC(=O)c3c(Cl)cccc3Cl)cc2)C(=O)O)c1Cl [Example 21] | –
16 | 0.47 nM | – | COC(=O)[C@H](Cc1ccc(N2C(=O)[C@@H](C(C)C)N(C)C2=O)cc1)NC(=O)c1c(C)cccc1Cl [Example 96, N-(2-Chloro-6-methylbenzoyl)-[(R)-2,5-dioxo-3-methyl-4-(1-methylethyl)-1-imidazolininyl]-L-phenylalanine methyl ester] | –
17 | 1.6 nM | 1320 nM | O=C(N[C@@H](Cc1ccc(NC(=O)c2c(Cl)cccc2Cl)cc1)C(=O)O)c1ccc(Br)cc1Cl [Example 22] | –
18 | 11 nM | – | CC(C)c1cccc(C(C)C)c1C(=O)N[C@@H](Cc1ccc(NC(=O)c2c(Cl)cccc2Cl)cc1)C(=O)O [Example 18] | –
19 | – | 114 nM | Cc1cc(C(F)(F)F)c(C(=O)N[C@@H](Cc2ccc(NC(=O)c3c(Cl)cccc3Cl)cc2)C(=O)O)c(C)n1 [Example 156] | –
20 | 8.6 nM | – | COc1ccccc1C(=O)N[C@@H](Cc1ccc(NC(=O)c2c(Cl)cccc2Cl)cc1)C(=O)O [Example 26] | –
21 | – | 351 nM | COc1ccc(C(=O)N[C@@H](Cc2ccc(NC(=O)c3c(Cl)cccc3Cl)cc2)C(=O)O)c(Cl)c1 [Example 19] | –
22 | – | 2600 nM | O=C(Nc1ccc(C[C@H](NC(=O)c2cccc3ccccc23)C(=O)O)cc1)c1c(Cl)cccc1Cl [Example 15] | –
23 | 0.25 nM | – | COc1ccc(Br)c(C(=O)N[C@@H](Cc2ccc(NC(=O)c3c(Cl)cccc3Cl)cc2)C(=O)O)c1 [Example 24] | –
24 | 2.2 nM | 1630 nM | O=C(N[C@@H](Cc1ccc(NC(=O)c2c(Cl)cccc2Cl)cc1)C(=O)O)c1cccc(Cl)c1Cl [Example 20] | –
25 | 1.9 nM | – | CNc1ccccc1C(=O)N[C@@H](Cc1ccc(NC(=O)c2c(Cl)cccc2Cl)cc1)C(=O)O [Example 27] | –
26 | – | 85 nM | O=C(Nc1ccc(C[C@H](NC(=O)c2c(F)cccc2C(F)(F)F)C(=O)O)cc1)c1c(Cl)cccc1Cl [Example 16] | –
27 | – | 13.5 nM | 4-[(2S,4R)-3-Acetyl-2-phenyl-4-(3-pyridinylmethyl)-5-oxo-1-imidazolinyl]-N-[(2-chloro-6-methylphenyl)carbonyl]-L-phenylalanine and 4-[(2R,4R)-3-acetyl-2-phenyl-4-(3-pyridinylmethyl)-5-oxo-1-imidazolinyl]-N-[(2-chloro-6-methylphenyl)carbonyl]-L-phenylalanine [Example 171] | –
28 | 3.3 nM | – | CS(=O)(=O)c1ccccc1C(=O)N[C@@H](Cc1ccc(NC(=O)c2c(Cl)cccc2Cl)cc1)C(=O)O [Example 28] | –
